{"source": "ChEMBL document CHEMBL1201862", "about": "“PubChem BioAssay data set” (2004)", "test_in_all_cases": "growth of human tumour cells (NCI), 48 h", "key": {"[1]": {"test_system": "SW-620"}, "[2]": {"test_system": "DU-145"}, "[3]": {"test_system": "HOP-62"}, "[4]": {"test_system": "A498"}, "[5]": {"test_system": "SK-MEL-5"}, "[6]": {"test_system": "UO-31"}, "[7]": {"test_system": "MCF7"}, "[8]": {"test_system": "OVCAR-3"}, "[9]": {"test_system": "OVCAR-4"}, "[10]": {"test_system": "RPMI-8226"}, "[11]": {"test_system": "MDA-MB-231"}, "[12]": {"test_system": "HL-60"}, "[13]": {"test_system": "HCC 2998"}, "[14]": {"test_system": "IGROV-1"}, "[15]": {"test_system": "SF-295"}, "[16]": {"test_system": "SR"}, "[17]": {"test_system": "EKVX"}, "[18]": {"test_system": "KM12"}, "[19]": {"test_system": "HCT-15"}, "[20]": {"test_system": "OVCAR-5"}, "[21]": {"test_system": "TK-10"}, "[22]": {"test_system": "CCRF-CEM"}, "[23]": {"test_system": "HCT-116"}, "[24]": {"test_system": "T47D"}, "[25]": {"test_system": "CAKI-1"}, "[26]": {"test_system": "K562"}, "[27]": {"test_system": "ACHN"}, "[28]": {"test_system": "NCI-H226"}, "[29]": {"test_system": "SF-268"}, "[30]": {"test_system": "U-251"}, "[31]": {"test_system": "COLO 205"}, "[32]": {"test_system": "A549"}, "[33]": {"test_system": "SN12C"}, "[34]": {"test_system": "Malme-3M"}, "[35]": {"test_system": "SNB-19"}, "[36]": {"test_system": "NCI-H23"}, "[37]": {"test_system": "SNB-75"}, "[38]": {"test_system": "NCI-H460"}, "[39]": {"test_system": "SK-MEL-2"}, "[40]": {"test_system": "HT-29"}, "[41]": {"test_system": "UACC-62"}, "[42]": {"test_system": "NCI/ADR-RES"}, "[43]": {"test_system": "LOX IMVI"}, "[44]": {"test_system": "UACC-257"}, "[45]": {"test_system": "SF-539"}, "[46]": {"test_system": "BT-549"}, "[47]": {"test_system": "MOLT-4"}, "[48]": {"test_system": "PC-3"}, "[49]": {"test_system": "OVCAR-8"}, "[50]": {"test_system": "SK-OV-3"}, "[51]": {"test_system": "MDA-N"}, "[52]": {"test_system": "786-0"}, "[53]": {"test_system": "NCI-H522"}, "[54]": {"test_system": "Hs-578T"}, "[55]": {"test_system": "RXF 393"}, "[56]": {"test_system": "M14"}, "[57]": {"test_system": "MDA-MB-435"}, "[58]": {"test_system": "SK-MEL-28"}}, "note": "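Method: 48-hour compound exposure of cells in 96-well plates, five concentrations, linear interpolation of endpoints. Here, GI50 denotes the concentration required for 50% inhibition of growth.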 The source made the active and inactive calls. No stated cut-off is given here; in the data, active = GI50 up to about 1.1 µM and inactive = higher.", "data": [{"compound": "C[C@]12CC[C@H]3[C@@H](CCC4=CC(=O)CC[C@@]43C)[C@]1(O)CC[C@]2(O)C(=O)CO", "values": [{"measurement": "GI50", "setting": "[1]", "value": "> 100 µM (inactive)"}, {"measurement": "GI50", "setting": "[2]", "value": "> 100 µM (inactive)"}, {"measurement": "GI50", "setting": "[3]", "value": "> 100 µM (inactive)"}, {"measurement": "GI50", "setting": "[4]", "value": "> 100 µM (inactive)"}, {"measurement": "GI50", "setting": "[5]", "value": "> 100 µM (inactive)"}, {"measurement": "GI50", "setting": "[6]", "value": "> 100 µM (inactive)"}, {"measurement": "GI50", "setting": "[7]", "value": "> 100 µM (inactive)"}, {"measurement": "GI50", "setting": "[8]", "value": "> 100 µM (inactive)"}, {"measurement": "GI50", "setting": "[9]", "value": "> 100 µM (inactive)"}, {"measurement": "GI50", "setting": "[10]", "value": "> 100 µM (inactive)"}, {"measurement": "GI50", "setting": "[11]", "value": "> 100 µM (inactive)"}, {"measurement": "GI50", "setting": "[12]", "value": "> 100 µM (inactive)"}, {"measurement": "GI50", "setting": "[13]", "value": "> 100 µM (inactive)"}, {"measurement": "GI50", "setting": "[14]", "value": "> 100 µM (inactive)"}, {"measurement": "GI50", "setting": "[15]", "value": "> 100 µM (inactive)"}, {"measurement": "GI50", "setting": "[16]", "value": "> 100 µM (inactive)"}, {"measurement": "GI50", "setting": "[17]", "value": "> 100 µM (inactive)"}, {"measurement": "GI50", "setting": "[18]", "value": "> 100 µM (inactive)"}, {"measurement": "GI50", "setting": "[19]", "value": "> 100", "unit": "µM"}, {"measurement": "GI50", "setting": "[20]", "value": "> 100 µM (inactive)"}, {"measurement": "GI50", "setting": "[21]", "value": "> 100 µM (inactive)"}, {"measurement": "GI50", "setting": "[22]", "value": "> 100 µM (inactive)"}, {"measurement": "GI50", "setting": "[23]", "value": "> 100 µM (inactive)"}, {"measurement": "GI50", "setting": "[24]", "value": "> 100 µM (inactive)"}, {"measurement": "GI50", "setting": "[25]", "value": "> 100 µM (inactive)"}, {"measurement": "GI50", "setting": "[26]", "value": "> 100 µM (inactive)"}, {"measurement": "GI50", "setting": "[27]", "value": "> 100 µM (inactive)"}, {"measurement": "GI50", "setting": "[28]", "value": "> 100 µM (inactive)"}, {"measurement": "GI50", "setting": "[29]", "value": "> 100 µM (inactive)"}, {"measurement": "GI50", "setting": "[30]", "value": "> 100 µM (inactive)"}, {"measurement": "GI50", "setting": "[31]", "value": "> 100 µM (inactive)"}, {"measurement": "GI50", "setting": "[32]", "value": "> 100 µM (inactive)"}, {"measurement": "GI50", "setting": "[33]", "value": "> 100 µM (inactive)"}, {"measurement": "GI50", "setting": "[34]", "value": "> 100 µM (inactive)"}, {"measurement": "GI50", "setting": "[35]", "value": "> 100 µM (inactive)"}, {"measurement": "GI50", "setting": "[36]", "value": "> 100 µM (inactive)"}, {"measurement": "GI50", "setting": "[37]", "value": "> 100 µM (inactive)"}, {"measurement": "GI50", "setting": "[38]", "value": "> 100 µM (inactive)"}, {"measurement": "GI50", "setting": "[39]", "value": "> 100 µM (inactive)"}, {"measurement": "GI50", "setting": "[40]", "value": "> 100 µM (inactive)"}, {"measurement": "GI50", "setting": "[41]", "value": "> 100 µM (inactive)"}, {"measurement": "GI50", "setting": "[42]", "value": "> 100 µM (inactive)"}, {"measurement": "GI50", "setting": "[43]", "value": "> 100 µM (inactive)"}, {"measurement": "GI50", "setting": "[44]", "value": "> 100 µM (inactive)"}, {"measurement": "GI50", "setting": "[45]", "value": "> 100 µM (inactive)"}, {"measurement": "GI50", "setting": "[46]", "value": "> 100 µM (inactive)"}, {"measurement": "GI50", "setting": "[47]", "value": "> 100 µM (inactive)"}, {"measurement": "GI50", "setting": "[48]", "value": "> 100 µM (inactive)"}, {"measurement": "GI50", "setting": "[49]", "value": "> 100 µM (inactive)"}, {"measurement": "GI50", "setting": "[50]", "value": "> 100 µM (inactive)"}, {"measurement": "GI50", "setting": "[51]", "value": "> 100 µM (inactive)"}, {"measurement": "GI50", "setting": "[52]", "value": "> 100 µM (inactive)"}, {"measurement": "GI50", "setting": "[53]", "value": "> 100 µM (inactive)"}, {"measurement": "GI50", "setting": "[54]", "value": "> 100 µM (inactive)"}, {"measurement": "GI50", "setting": "[55]", "value": "> 100 µM (inactive)"}, {"measurement": "GI50", "setting": "[56]", "value": "> 100 µM (inactive)"}, {"measurement": "GI50", "setting": "[57]", "value": "> 100 µM (inactive)"}, {"measurement": "GI50", "setting": "[58]", "value": "> 100 µM (inactive)"}]}]}
